US7067503B2, “17-aryl linker derivatised estrogen 3-sulphamates as inhibitors of steroid sulphatase” (priority 2000, dated 2006)
Where two headings read alike, the source gives them in different places.

Legend:
STS = target: T1, STS (Homo sapiens, UniProt P08842); assay: Plate assay, % inhibition
T1 sequence (P08842 22-583): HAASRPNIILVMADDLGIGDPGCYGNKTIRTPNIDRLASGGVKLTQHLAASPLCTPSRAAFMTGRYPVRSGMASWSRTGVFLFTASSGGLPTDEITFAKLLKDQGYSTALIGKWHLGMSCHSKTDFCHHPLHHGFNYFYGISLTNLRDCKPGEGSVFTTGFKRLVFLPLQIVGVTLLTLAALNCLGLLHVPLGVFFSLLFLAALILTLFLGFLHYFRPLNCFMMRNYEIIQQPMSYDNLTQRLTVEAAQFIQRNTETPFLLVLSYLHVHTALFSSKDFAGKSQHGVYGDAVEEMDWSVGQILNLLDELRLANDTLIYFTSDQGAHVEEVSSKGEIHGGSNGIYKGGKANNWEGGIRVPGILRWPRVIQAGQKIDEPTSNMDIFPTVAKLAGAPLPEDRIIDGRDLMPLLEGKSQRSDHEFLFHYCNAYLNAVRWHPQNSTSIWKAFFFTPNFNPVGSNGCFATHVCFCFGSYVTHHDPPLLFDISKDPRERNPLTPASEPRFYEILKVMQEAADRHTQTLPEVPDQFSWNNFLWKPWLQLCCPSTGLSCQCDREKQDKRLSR
Experimental: The STS inhibition provided by the compounds was determined in accordance with a plate assay and the Protocols set out herein.

steroid sulphatase = target: T2, steroid sulphatase (Homo sapiens, UniProt P08842); assay: Inhibition of steroid sulphatase activity in placental microsomes (Protocol 2); assay type: biochemical
T2 construct: Sulphatase-positive human placenta from normal term pregnancies are thoroughly minced with scissors; from tissue; host or cells: human term placenta (2000 g supernatant / microsomes)
Experimental: Inhibition of Steroid Sulphatase Activity in Placental Microsomes
Sulphatase-positive human placenta from normal term pregnancies are thoroughly minced with scissors and washed once with cold phosphate buffer (pH 7.4, 50 mM) then re-suspended in cold phosphate buffer (5 ml/g tissue). Homogenisation is accomplished with an Ultra-Turrax homogeniser, using three 10 second bursts separated by 2 minute cooling periods in ice. Nuclei and cell debris are removed by centrifuging (4° C.) at 2000 g for 30 minutes and portions (2 ml) of the supernatant are stored at 20° C.
Incubations (1 ml) are carried out using a protein concentration of 100 mg/ml, substrate concentration of 20 mM [6,7–3H]oestrone-3-sulphate (specific activity 60 Ci/mmol from New England Nuclear, Boston, Mass., U.S.A.) and an incubation time of 20 minutes at 37° C. If necessary eight concentrations of compounds are employed: 0 (i.e. control); 0.05 mM; 0.1 mM; 0.2 mM; 0.4 mM; 0.6 mM; 0.8 mM; 1.0 mM. After incubation each sample is cooled and the medium (1 ml) was pipetted into separate tubes containing [14C]oestrone (7×10^3 dpm) (specific activity 97 Ci/mmol from Amersham International Radiochemical Centre, Amersham, U.K.). The mixture is shaken thoroughly for 30 seconds with toluene (5 ml). […] A portion (2 ml) of the organic phase was removed, evaporated and the 3H and 14C content of the residue determined by scintillation spectrometry. The mass of oestrone-3-sulphate hydrolysed is calculated from the 3H counts obtained (corrected for the volumes of the medium and organic phase used, and for recovery of [14C]oestrone added) and the specific activity of the substrate.

E1-STS enzyme = target: T3, E1-STS enzyme (Homo sapiens, UniProt P08842); settings: cited from earlier work
T3 sequence (P08842 22-583): T1 sequence (P08842 22-583)

tubulin = settings: at high concentrations; cited from earlier work
[1] = test system: Meth A sarcoma, B16 melanoma or MDA-MB-435 estrogen receptor negative (ER−) breast cancer cells; settings: subcutaneous injection of tumour cells; cited from earlier work
[2] = 0.1 μM, -ve % means stimulation
[3] = read-out: Plate assay % inhibition
[4] = 10 nM, superscript 1 or 2 = run with the reference values of that footnote, -ve % means stimulation
[5] = 1 μM, superscript 1 or 2 = run with the reference values of that footnote, -ve % means stimulation

COc1cc2c(cc1O)CCC1C2CC[C@@]2(C)C1CC[C@@]2(O)Cc1cccc(Br)c1 (stereo partly drawn)
melting point: 173 to 177 °C

C[C@]12CCC3c4ccc(O)cc4CCC3C1CC[C@@]2(O)Cc1ccccn1 (stereo partly drawn)
melting point: 250 to 255 °C

C[C@]12CC[C@@H]3c4ccc(OS(N)(=O)=O)cc4CC[C@H]3[C@@H]1CC[C@@H]2O [BLE00084]
Plate assay % inhibition (STS; [2]): 4%
Plate assay % inhibition (STS; 10 μM, -ve % means stimulation): 23%

COc1cc2c(cc1O)CCC1C2CC[C@@]2(C)C1CC[C@@]2(O)Cc1ccc(C(C)(C)C)cc1 (stereo partly drawn) [BLE01008, 3,17β-Dihydroxy-17α-(4-tert-butylbenzyl)-2-methoxyestra-1,3,5(10)-triene]
melting point: 223 to 225 °C
inhibition at 0.1 µM (STS; [3]): -12%
inhibition at 1 µM (STS; [3]): -15%

COc1cc2c(cc1O)CCC1C2CC[C@@]2(C)C1CC[C@@]2(O)Cc1ccccc1 (stereo partly drawn) [BLE01014, 3,17β-Dihydroxy-17α-benzyl-2-methoxyestra-1,3,5(10)-triene]
melting point: 209 to 213 °C
inhibition at 0.1 µM (STS; [3]): -14%
inhibition at 1 µM (STS; [3]): -14%

COc1cc2c(cc1OS(N)(=O)=O)CC[C@@H]1[C@@H]2CC[C@@]2(C)[C@H]1CC[C@@]2(O)Cc1ccc(C(C)(C)C)cc1 [BLE01016, 3-O-Sulfamate 17β-hydroxy-17α-(4-tert-butylbenzyl)-2-methoxyestra-1,3,5(10) -triene]
IC50 (steroid sulphatase): 4300 nM
inhibition at 0.1 µM (STS; [3]): -14%
inhibition at 1 µM (STS; [3]): -10%
inhibition at 10 µM (STS; [3]): -3%

COc1cc2c(cc1OS(N)(=O)=O)CC[C@@H]1[C@@H]2CC[C@@]2(C)[C@H]1CC[C@@]2(O)Cc1ccccc1 [BLE01018, 3-O-Sulfamate 17β-hydroxy-17α-benzyl-2-methoxyestra-1,3,5(10)-triene]
IC50 (steroid sulphatase): 430 nM
inhibition at 0.1 µM (STS; [3]): -19%
inhibition at 1 µM (STS; [3]): -12%

CC12CCC3c4ccc(OS(N)(=O)=O)cc4CCC3C1CCC2OS(N)(=O)=O (stereo not drawn) [BLE99031B]
IC50 (steroid sulphatase): 20 nM
inhibition at 0.1 µM (STS; [3]): 7%
inhibition at 1 µM (STS; [3]): 12%
inhibition at 10 µM (STS; [3]): 32%

CC(=O)NS(=O)(=O)O[C@H]1CCC2C3CCc4cc(O)ccc4C3CC[C@@]21C (stereo partly drawn) [BLE99058]
Placental Microsomes % inhibition (steroid sulphatase; [4]): 0.9^1%
Placental Microsomes % inhibition (steroid sulphatase; [5]): 7.8^1%
Plate assay % inhibition (STS; [2]): 4%
Plate assay % inhibition (STS; 1 μM, -ve % means stimulation): 1%

C[C@]12CCC3c4ccc(O)cc4CCC3C1CC[C@@H]2OS(=O)(=O)N(Cc1ccccc1)Cc1ccccc1 (stereo partly drawn) [BLE99060]
Placental Microsomes % inhibition (steroid sulphatase; [4]): −3.2^2%
Placental Microsomes % inhibition (steroid sulphatase; [5]): 1.36^2%

C[C@]12CCC3c4ccc(OS(N)(=O)=O)cc4CCC3C1CC[C@@H]2OS(=O)(=O)N(Cc1ccccc1)Cc1ccccc1 (stereo partly drawn) [BLE99063]
Placental Microsomes % inhibition (steroid sulphatase; [4]): −1.9^1%
Placental Microsomes % inhibition (steroid sulphatase; [5]): 38.2^1%
Plate assay % inhibition (STS; [2]): 0%
Plate assay % inhibition (STS; 1 μM, -ve % means stimulation): 15%

CC(=O)NS(=O)(=O)O[C@H]1CCC2C3CCc4cc(OS(N)(=O)=O)ccc4C3CC[C@@]21C (stereo partly drawn) [BLE99065]
Placental Microsomes % inhibition (steroid sulphatase; [4]): 9.8^1%
Placental Microsomes % inhibition (steroid sulphatase; [5]): 91.0^1%
Plate assay % inhibition (STS; [2]): 7%
Plate assay % inhibition (STS; 1 μM, -ve % means stimulation): 5%
Plate assay % inhibition (STS; 10 μM, -ve % means stimulation): 23%

C[C@]12CCC3c4ccc(O)cc4CCC3C1CC[C@H]2OS(=O)(=O)N(Cc1ccccc1)Cc1ccccc1 (stereo partly drawn) [BLE99066]
Placental Microsomes % inhibition (steroid sulphatase; [4]): 1.4^1%
Placental Microsomes % inhibition (steroid sulphatase; [5]): 4.5^1%
Plate assay % inhibition (STS; [2]): 11%
Plate assay % inhibition (STS; 1 μM, -ve % means stimulation): 5%
Plate assay % inhibition (STS; 10 μM, -ve % means stimulation): 27%

CN(C)S(=O)(=O)O[C@H]1CCC2C3CCc4cc(O)ccc4C3CC[C@@]21C (stereo partly drawn) [BLE99067]
Placental Microsomes % inhibition (steroid sulphatase; [4]): −0.1^1%
Placental Microsomes % inhibition (steroid sulphatase; [5]): 8.7^1%
Plate assay % inhibition (STS; [2]): −5%
Plate assay % inhibition (STS; 1 μM, -ve % means stimulation): −1%
Plate assay % inhibition (STS; 10 μM, -ve % means stimulation): 50%

C[C@]12CCC3c4ccc(OS(N)(=O)=O)cc4CCC3C1CC[C@H]2OS(=O)(=O)N(Cc1ccccc1)Cc1ccccc1 (stereo partly drawn) [BLE99068]
Placental Microsomes % inhibition (steroid sulphatase; [4]): 4.9^1%
Placental Microsomes % inhibition (steroid sulphatase; [5]): 58.2^1%
Plate assay % inhibition (STS; [2]): −18%
Plate assay % inhibition (STS; 1 μM, -ve % means stimulation): −1%
Plate assay % inhibition (STS; 10 μM, -ve % means stimulation): 19%

CN(C)S(=O)(=O)OC1CCC2C3CCc4cc(OS(N)(=O)=O)ccc4C3CCC12C (stereo not drawn) [BLE99069]
Placental Microsomes % inhibition (steroid sulphatase; [4]): 30.3^1%
Placental Microsomes % inhibition (steroid sulphatase; [5]): 96.3^1%
Plate assay % inhibition (STS; [2]): 3%
Plate assay % inhibition (STS; 1 μM, -ve % means stimulation): 10%

CCCCCN(CCCCC)S(=O)(=O)O[C@H]1CCC2C3CCc4cc(O)ccc4C3CC[C@@]21C (stereo partly drawn) [BLE99073]
Placental Microsomes % inhibition (steroid sulphatase; [4]): 1.2^2%
Placental Microsomes % inhibition (steroid sulphatase; [5]): −11.8^2%

CCCCCN(CCCCC)S(=O)(=O)O[C@H]1CCC2C3CCc4cc(OS(N)(=O)=O)ccc4C3CC[C@@]21C (stereo partly drawn) [BLE99074]
Placental Microsomes % inhibition (steroid sulphatase; [5]): 23.7^2%

COc1cc2c(cc1OS(N)(=O)=O)CC[C@@H]1[C@@H]2CC[C@]2(C)C(=O)CC[C@@H]12 [Compound 2-MOEMATE, 2-methoxyoestrone-3-O-sulphamate, reference compound]
Plate assay % inhibition (STS; [2]): 15%
Plate assay % inhibition (STS; 1 μM, -ve % means stimulation): 42%
Plate assay % inhibition (STS; 10 μM, -ve % means stimulation): 88%
potency as a steroid sulphatase inhibitor relative to EMATE (E1-STS enzyme): equipotent with EMATE

COc1cc2c(cc1O)CC[C@@H]1[C@@H]2CC[C@]2(C)[C@@H](O)CC[C@@H]12 [Compound 2-MeOE2, 2-methoxyoestradiol]
inhibition of colchicine binding to tubulin (tubulin): weak inhibitor of colchicine binding to tubulin
growth of tumours in vivo [1]: inhibits the growth of tumours

CSc1cc2c(cc1OS(N)(=O)=O)CCC1C2CCC2(C)C1CCC2(O)Cc1ccc(C(C)(C)C)cc1 (stereo not drawn) [Compound 3]
inhibition at 0.01 µM (steroid sulphatase; 10 nM, read-out: Placental Microsomes, % inhibition): 17.6%
inhibition at 0.1 µM (steroid sulphatase; 100 nM, read-out: Placental Microsomes, % inhibition): 56%
inhibition at 10 µM (steroid sulphatase; 10 μM, read-out: Placental Microsomes, % inhibition): 86.4%
IC50 (steroid sulphatase; read-out: Placental Microsomes, IC50): 80 nM
inhibition at 0.1 µM (STS; 0.1 μM, read-out: Plate Assay, % inhibition): < 1%
inhibition at 1 µM (STS; 1 μM, read-out: Plate Assay, % inhibition): < 1%
inhibition at 10 µM (STS; 10 μM, read-out: Plate Assay, % inhibition): 48%

NS(=O)(=O)Oc1ccc(C(=O)c2ccccc2)cc1 [Compound 6]
Plate assay % inhibition (STS; 0.1 μM): <1%
Plate assay % inhibition (STS; 1 μM): 1%
Plate assay % inhibition (STS; 10 μM): 11%

NS(=O)(=O)Oc1ccc(C(=O)C=Cc2ccccc2)cc1 [Compound 8]
Plate assay % inhibition (STS; 0.1 μM): <1%
Plate assay % inhibition (STS; 1 μM): <4%
Plate assay % inhibition (STS; 10 μM): 14%

NS(=O)(=O)Oc1ccc2oc3ccccc3c2c1 [Compound 9]
Placental Microsomes % inhibition (steroid sulphatase; 10 nM): <5%
Placental Microsomes % inhibition (steroid sulphatase; column head printed "μM"): 66.0%
Plate assay % inhibition (STS; 0.1 μM): <1%
Plate assay % inhibition (STS; 1 μM): 1%
Plate assay % inhibition (STS; 10 μM): 16%

COc1cc2c(cc1OS(N)(=O)=O)CCC1C2CCC2(C)C(OS(N)(=O)=O)CCC12 (stereo not drawn) [OSO2NH2, OMe, C-β-OSO2NH2, α-H]
inhibition at 0.1 µM (STS; [3]): 7%
inhibition at 1 µM (STS; [3]): 12%
inhibition at 10 µM (STS; [3]): 32%

oestrone-3-N-sulphamate
mode of E1-STS inhibition (E1-STS enzyme): weaker non-time-dependent inactivators

oestrone-3-S-sulphamate
mode of E1-STS inhibition (E1-STS enzyme): weaker non-time-dependent inactivators
